Test system: Tau-mCherry (Tau 441 isoform) on stabilized MTs from porcine brain tubulin
Experiment: Tau-mCherry binding to stabilized MTs (TIRF)
Format: biochemical
Settings: for Tau envelope growth velocity / initial Tau envelope coverage: 10 nM Tau-mCherry; for Tau envelope coverage of MT length / Tau-mCherry coating of stabilized MTs: 40 nM Tau-mCherry; for initial Tau envelope coverage: MTs polymerized in the presence of drug
Source text: Previous studies in vitro have shown that Tau molecules strongly prefer compacted GDP lattices. Tau binds cooperatively to MT surfaces, resulting in a cohesive layer depending on tau-tau interactions, termed MT envelope, which selectively regulates access to MT lattices, and shields MTs from severing enzymes. − On expanded PTX-MTs, Tau envelope also forms and the lattice can get locally compacted. To further explore how MT lattice structure influences Tau binding, we employed an in vitro reconstitution assay. We deposited stabilized MTs in a flow chamber, and visualized them via interference reflection microscopy (Figure C). We then added 10 nM Tau-mCherry (labeled purified Tau 441 isoform at the C-terminus with mCherry) and monitored its association with MTs using time-lapse TIRF microscopy. After 4 min, we increased Tau concentration to 40 nM, and continued imaging for an additional 4 min. We measured fluorescence intensities along MTs to quantify Tau binding (Movies S16–S27). […] PTXpost-MTs also supported […] faster envelope growth (0.20 ± 0.02 μm/s versus 0.054 ± 0.006 μm/s for PTXpre-MTs, Figure H).
Total Internal Reflection Fluorescence microscopy experiments were performed on an inverted widefield microscope Nikon-Ti2 E, equipped with a motorized XY-stage, a perfect focus system, Apo TIRF 60× oil NA 1.49 objective and PRIME BSY (Teledyne Photometrics) camera. MTs were visualized using Interference Reflection microscopy (IRM) and fluorescently labeled proteins were visualized sequentially by switching between microscope filter cubes for GFP and mCherry channels. The microscopes were controlled using NIS Elements software (Nikon). All experiments were conducted at RT.
Microscopy chambers were prepared from two sandwiched silanized glass coverslips (22 × 22 mm^2 and 18 × 18 mm^2) attached through parafilm strips (heated for 15–20 s at 60 °C and gently pressed together) to form ∼2.5 mm wide parallel flow channels. Prior to the chamber assembly, the coverslips were washed in 3 M KOH, cleaned using Zepto plasma cleaner (Diener electronic) and silanized with hexamethyldisilazane. Flow channels were first incubated with 40 μgml^–1 antibiotin antibodies (Sigma, B3640) in PBS for 10 min, followed by incubation with 1% Pluronic F127 (Sigma-Aldrich, P2443) in PBS for at least 1 h. F127 was washed with BRB80 (80 mM PIPES, 1 mM EGTA, 1 mM MgCl2, pH 6.9).
Porcine brain tubulin was isolated using the high-molarity PIPES procedure then mixed with Biotin labeled tubulin (Cytoskeleton Inc., T333P) in 1:49 ratio. All MTs were polymerized using 2% biotin-labeled tubulin. […] Polymerized MTs were centrifuged for 30 min at 18,000g in a Microfuge 18 Centrifuge (Beckman Coulter’s). […] Drug stabilized preassembly MTs (polymerized in the presence of drugs and GTP, stored and imaged in presence of drug) were polymerized from 4 mg mL^–1 biotinylated tubulin for 30 min at 37 °C in BRB80 supplemented with 4 mM MgCl2, 40 μM drug of interest in 5% DMSO, and 1 mM GTP. Polymerized MTs were centrifuged for 30 min at 18,000g in a Microfuge 18 Centrifuge (Beckman Coulter’s). […] GMPCPP stabilized MTs (GMPCPP polymerized) were assembled from 4 mg mL^–1 biotinylated tubulin for 2 h at 37 °C in BRB80 supplemented with 1 mM MgCl2 and 1 mM GMPCPP (Jena Bioscience, NU-405). Polymerized MTs were centrifuged for 30 min at 18,000g in a Microfuge 18 Centrifuge (Beckman Coulter’s) and pellets were resuspended and kept in BRB80.
Stabilized MTs were flushed into the channel and incubated for 15–30 s to allow for surface attachment. Unbound MTs were removed by washing with BRB80 supplemented with 10 μM of drug. Prior the experiment, the solution was exchanged by motility buffer, MB (BRB80 containing 10 mM DTT, 20 mM D-glucose, 0.1% Tween-20, 0.5 mg/mL casein, 1 mM Mg-ATP, 0.02 mg/mL catalase, 0.22 mg/mL glucose oxidase, 10 μM drug). Subsequently, a solution containing either 1.08 nM Kif5b-EGFP or 10/40 nM mCherry-Tau in MB was introduced into the chamber. […]

[1] = MTs polymerized in the presence of drug (preassembly)
[2] = MTs stabilized with PTX after polymerization (PTXpost)

Row | Structure (SMILES) | Tau envelope growth velocity [1] [μm/s] | Tau envelope growth velocity [2] [μm/s] | Tau envelope coverage of MT length (MTs assembled in the presence of PTX (PTXpre)) [%] | Tau envelope coverage of MT length [2] | initial Tau envelope coverage [%] | Tau-mCherry coating of stabilized MTs
1 | CC(=O)O[C@H]1C(=O)[C@@]2(C)[C@H]([C@H](OC(=O)c3ccccc3)[C@]3(O)C[C@H](OC(=O)[C@H](O)[C@@H](NC(=O)c4ccccc4)c4ccccc4)C(C)=C1C3(C)C)[C@]1(OC(C)=O)CO[C@@H]1C[C@@H]2O [PTX, Paclitaxel] | 0.054 ± 0.006 | 0.20 ± 0.02 | 30 | up to 60% | – | –
2 | CC(=O)OC1C(=O)C2(C)C(OC(=O)CCCCC(=O)OC3CCc4ccccc43)CC3OCC3(OC(C)=O)C2C(OC(=O)c2ccccc2)C2(O)CC(OC(=O)C(O)C(NC(=O)c3ccccc3)c3ccccc3)C(C)=C1C2(C)C (stereo not shown) [1a, 7-O-(6″-O-(2‴,3‴-Dihydroinden-1‴-yl)hexanedioyl) Paclitaxel] | 1.5 ± 0.1 | – | – | – | 40 | fully coated
3 | COc1ccc2c(c1)CC(NC(=O)CCCCCCCC(=O)OC1CC3OCC3(OC(C)=O)C3C(OC(=O)c4ccccc4)C4(O)CC(OC(=O)C(O)C(NC(=O)c5ccccc5)c5ccccc5)C(C)=C(C(OC(C)=O)C(=O)C13C)C4(C)C)CC2 [1b, 7-O-((S)-9″-(7‴-Methoxy-1‴,2‴,3‴,4‴-tetrahydronaphthalen-2‴-yl)amino) −9″-oxononanoyl) Paclitaxel] | 0.46 ± 0.05 | – | – | – | 20 | fully coated
4 | CC(=O)O[C@H]1C(=O)[C@]2(C)[C@@H](OC(=O)[C@H](C)NC(=O)c3ccc(-c4c5cc(F)c(=O)cc-5oc5cc(O)c(F)cc45)c(C(=O)O)c3)C[C@H]3OC[C@@]3(OC(C)=O)[C@H]2[C@H](OC(=O)c2ccccc2)[C@]2(O)C[C@H](OC(=O)[C@H](O)[C@@H](NC(=O)c3ccccc3)c3ccccc3)C(C)=C1C2(C)C [FTX2, Flutax2] | 1.37 ± 0.09 | – | – | – | 60 | fully coated

— PMC13492380, “Dissecting Structural and Functional Determinants of Microtubules Stabilization through Guided Chemical Modulation” (Journal of Medicinal Chemistry, 2026)
